Experimental data as given in patent publication US7838518B2, “1-arylsulfonyl-3-substituted indole and indoline derivatives useful in the treatment of central nervous system disorders” (N.V. Organon, priority 2002, dated 2010).
Structures can show the parent of a compound that is named as a salt.

Each compound was assayed against T1, human 5-HT6 receptor (Homo sapiens, UniProt P50406) (assay: 5-HT6 receptor binding assay ([3H]-LSD competition)). Details: membranes of NIH 3T3 cells stably expressing the human 5-HT6 gene; [3H]-LSD radioligand; IC50 converted to pKi by Cheng-Prusoff equation; read-out: pKi (affinity for the 5-HT6 receptor) (converted).
T1 construct: expressed in transfected cells
Protocol: The ability of the compounds of the invention to interact with the 5-HT6 receptor is established in (competitive) binding studies to NIH 3T3 cells stably expressing the human 5-HT6 receptor.
NIH 3T3 cells stably expressing the human 5-HT6 gene were grown at 37° C. in a 5% CO2 atmosphere in DMEM supplemented with 10% cosmic calf serum (Hyclone) and subcultured when confluent. Cells were harvested by trypsination (Sigma) and membranes prepared by homogenisation followed by centrifugation in […] Tris buffer (pH 7.4) containing […] magnesium sulphate and […] EDTA. Radioligand binding assays were performed in 96 well polystyrene deep well plates (Semat) in a final volume of 500 μl, consisting of 100 μl of competing drug, 100 μl of 10 nmole·L^−1 [^3H]-lysergic acid diethylamide (LSD) and 300 μl of diluted membrane expressing the 5-HT6 receptor. All test compounds were dissolved in DMSO (dimethyl-sulfoxide) at 10 mM and serially diluted is assay buffer to give a six-fold concentration range (between 0.01 nM and 100 μM). Non-specific binding was determined with 10 μM Methiothepin. Plates were incubated at room temperature for 90 minutes. The reactions were terminated by rapid filtration using a Packard harvester onto 96 well GF/B filter plates (Packerd Unifilter) presoaked with 0.3% w/N polyethyleneimine, washed 3 times with ice-cold assay buffer (1 ml), oven dried and 50 μl Microscint-20 added. The retained radioactivity was then determined using a scintillation counter.
Data were analysed using standard curve fitting procedures (Graphpad: four parameter logistic equation) to produce IC50 values for active compounds (where IC50 is the concentration of test compound causing 50% inhibition of binding). IC50 values were conerted to pKi values using the Cheng-Prusoff equation 1 (Cheng, Y. and Prosoff, W. H., Biochem. Pharmacol. 22, 3099-3108, 1973).

T1 sequence (P50406 whole entry): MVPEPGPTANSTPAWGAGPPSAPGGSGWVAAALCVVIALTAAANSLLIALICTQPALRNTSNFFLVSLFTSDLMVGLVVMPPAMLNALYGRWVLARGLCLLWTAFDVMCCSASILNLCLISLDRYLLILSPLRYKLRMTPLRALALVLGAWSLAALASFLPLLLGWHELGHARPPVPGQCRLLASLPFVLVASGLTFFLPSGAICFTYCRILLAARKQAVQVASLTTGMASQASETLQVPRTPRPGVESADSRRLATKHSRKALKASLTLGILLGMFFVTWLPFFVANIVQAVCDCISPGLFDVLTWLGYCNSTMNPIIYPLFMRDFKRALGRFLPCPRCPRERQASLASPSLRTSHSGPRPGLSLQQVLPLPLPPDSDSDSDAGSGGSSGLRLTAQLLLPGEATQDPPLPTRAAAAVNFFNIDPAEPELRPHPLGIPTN

Row | Ki [nM] | Compound
1 | < 31.6 | COc1ccc(S(=O)(=O)N2CC(C(=O)NCCC3CCCN3C)c3ccccc32)c2ccccc12 (centres unmarked) [Example 1, 1-(4-Methoxynaphthalene-1-sulfonyl)-2,3-dihydro-1H-indole-3-carboxylic acid [2-(1-methyl-pyrrolidin-2-yl)-ethyl]amide]
2 | < 31.6 | COc1ccc(S(=O)(=O)N2CC(C(=O)NC3CCCN(C)C3)c3ccccc32)c2ccccc12 (centres unmarked) [Example 2, 1-(4-Methoxynaphthalene-1-sulfonyl)-2,3-dihydro-1H-indole-3-carboxylic acid (1-methyl-piperidin-3-yl)amide]
3 | < 31.6 | COc1ccc(S(=O)(=O)N2CC(C(=O)N3CCNCC3)c3ccccc32)c2ccccc12 (centres unmarked) [Example 17, [1-(4-Methoxynaphthalene-1-sulfonyl)-2,3-dihydro-1H-indol-3-yl]-piperazin-1-yl-methanone]
4 | < 31.6 | CCN(CC)CCNC(=O)C1CN(S(=O)(=O)c2ccc(OC)c3ccccc23)c2ccccc21 (centres unmarked) [Example 24, 1-(4-Methoxynaphthalene-1-sulfonyl)-2,3-dihydro-1H-indole-3-carboxylic acid (2-diethylamino-ethyl)-amide]
5 | < 31.6 | COc1ccc(S(=O)(=O)N2CC(C(=O)NC3CCN(C)CC3)c3ccccc32)c2ccccc12 (centres unmarked) [Example 25, 1-(4-Methoxynaphthalene-1-sulfonyl)-2,3-dihydro-1H-indole-3-carboxylic acid (1-methyl-piperidin-4-yl)-amide]
6 | < 31.6 | COc1ccc(S(=O)(=O)N2CC(C(=O)N(C)C3CCN(C)CC3)c3ccccc32)c2ccccc12 (centres unmarked) [Example 35, 1-(4-Methoxynaphthalene-1-sulfonyl)-2,3-dihydro-1H-indole-3-carboxylic acid methyl-(1-methyl-piperidin-4-yl)-amide]
7 | < 31.6 | CN1CCC(N(C)C(=O)C2CN(S(=O)(=O)c3cccc(C(F)(F)F)c3)c3ccccc32)CC1 (centres unmarked) [Example 39, 1-(3-Trifluoromethyl-benzenesulfonyl)-2,3-dihydro-1H-indole-3-carboxylic acid methyl-(1-methyl-piperidin-4-yl)-amide trifluoroacetate]
8 | < 31.6 | CN1CCC(N(C)C(=O)C2CN(S(=O)(=O)c3ccc(OC(F)(F)F)cc3)c3ccccc32)CC1 (centres unmarked) [Example 42, 1-(4-Trifluoromethoxy-benzenesulfonyl)-2,3-dihydro-1H-indole-3-carboxylic acid methyl-(1-methyl-piperidin-4-yl)-amide trifluoroacetate]
9 | < 31.6 | CN1CCC(N(C)C(=O)C2CN(S(=O)(=O)c3ccc(C(F)(F)F)cc3)c3ccccc32)CC1 (centres unmarked) [Example 50, 1-(4-Trifluoromethyl-benzenesulfonyl)-2,3-dihydro-1H-indole-3-carboxylic acid methyl-(1-methyl-piperidin-4-yl)-amide trifluoroacetate]
10 | < 31.6 | CN1CCC(N(C)C(=O)C2CN(S(=O)(=O)c3ccc4c(c3)CCO4)c3ccccc32)CC1 (centres unmarked) [Example 55, 1-(2,3-Dihydro-benzofuran-5-sulfonyl)-2,3-dihydro-1H-indole-3-carboxylic acid methyl-(1-methyl-piperidin-4-yl)-amide trifluoroacetate]
11 | < 31.6 | CN1CCC(N(C)C(=O)C2CN(S(=O)(=O)c3cccc4c(Cl)cccc34)c3ccccc32)CC1 (centres unmarked) [Example 71, 1-(5-Chloro-naphthalene-1-sulfonyl)-2,3-dihydro-1H-indole-3-carboxylic acid methyl-(1-methyl-piperidin-4-yl)-amide trifluoroacetate]
12 | < 31.6 | Cc1cc(S(=O)(=O)N2CC(C(=O)N(C)C3CCN(C)CC3)c3ccccc32)c(C(F)(F)F)o1 (centres unmarked) [Example 109, 1-(5-Methyl-2-trifluoromethyl-furan-3-sulphonyl)-2,3-dihydro-1H-indole-3-carboxylic acid methyl-(1-methyl-piperidin-4-yl)-amide]

Continued, compound first:

Row | Compound | Ki [nM]
13 | COc1ccc(S(=O)(=O)N2CC(C(=O)NC3CC4CCC(C3)N4C)c3ccccc32)c2ccccc12 (centres unmarked) [Example 31, 1-(4-Methoxynaphthalene-1-sulfonyl)-2,3-dihydro-1H-indole-3-carboxylic acid (8-methyl-8-aza-bicyclo[3.2.1]oct-3-yl)amide] | < 31.6
14 | CN1CCC(N(C)C(=O)C2CN(S(=O)(=O)c3cccc(Br)c3)c3ccccc32)CC1 (centres unmarked) [Example 40, 1-(3-Bromo-benzenesulfonyl)-2,3-dihydro-1H-indole-3-carboxylic acid methyl-(1-methyl-piperidin-4-yl)-amide trifluoroacetate] | < 31.6
15 | CN1CCC(N(C)C(=O)C2CN(S(=O)(=O)c3cc(Cl)sc3Cl)c3ccccc32)CC1 (centres unmarked) [Example 51, 1-(2,5-Dichloro-thiophene-3-sulfonyl)-2,3-dihydro-1H-indole-3-carboxylic acid methyl-(1-methyl-piperidin-4-yl)-amide trifluoroacetate] | < 31.6
16 | CN1CCC(N(C)C(=O)C2CN(S(=O)(=O)c3ccc4ccccc4c3)c3ccccc32)CC1 (centres unmarked) [Example 58, 1-(Naphthalene-2-sulfonyl)-2,3-dihydro-1H-indole-3-carboxylic acid methyl-(1-methyl-piperidin-4-yl)-amide trifluoroacetate] | < 31.6
17 | CN1CCC(N(C)C(=O)C2CN(S(=O)(=O)c3cccc4ccccc34)c3ccccc32)CC1 (centres unmarked) [Example 59, 1-(Naphthalene-1-sulfonyl)-2,3-dihydro-1H-indole-3-carboxylic acid methyl-(1-methyl-piperidin-4-yl)-amide trifluoroacetate] | < 31.6
18 | CN1CCC(N(C)C(=O)C2CN(S(=O)(=O)c3cccc(-c4ccccc4)c3)c3ccccc32)CC1 (centres unmarked) [Example 60, 1-(Biphenyl-3-sulfonyl)-2,3-dihydro-1H-indole-3-carboxylic acid methyl-(1-methyl-piperidin-4-yl)-amide trifluoroacetate] | < 31.6
19 | CN1CCC(N(C)C(=O)C2CN(S(=O)(=O)c3csc4ccccc34)c3ccccc32)CC1 (centres unmarked) [Example 62, 1-(Benzo[b]thiophene-3-sulfonyl)-2,3-dihydro-1H-indole-3-carboxylic acid methyl-(1-methyl-piperidin-4-yl)-amide trifluoroacetate] | < 31.6
20 | COc1ccc(S(=O)(=O)N2CC(C(=O)N(C)C3CCN(C)CC3)c3ccccc32)cc1Br (centres unmarked) [Example 69, 1-(3-Bromo-4-methoxy-benzenesulfonyl)-2,3-dihydro-1H-indole-3-carboxylic acid methyl-(1-methyl-piperidin-4-yl)-amide trifluoroacetate] | < 31.6
